Reference: US20260138970A1, “MODULATORS OF THE CALCIUM SIGNALING CASCADE” (FONDAZIONE TELETHON ETS, priority 2022, published 2026)

Experiments:
Type in all cases: cell-based
[1] = target: T1, CCK1 receptor (Homo sapiens, UniProt P32238); assay: Fluo-4 Ca2+ assay in Chem-1 cells expressing CCK1 receptor; settings: CCK8s 0.25 nM; vs vehicle (DMSO); FIG. 10
T1 construct: host or cells: Chem-1 cells
T1 sequence (P32238 1-428): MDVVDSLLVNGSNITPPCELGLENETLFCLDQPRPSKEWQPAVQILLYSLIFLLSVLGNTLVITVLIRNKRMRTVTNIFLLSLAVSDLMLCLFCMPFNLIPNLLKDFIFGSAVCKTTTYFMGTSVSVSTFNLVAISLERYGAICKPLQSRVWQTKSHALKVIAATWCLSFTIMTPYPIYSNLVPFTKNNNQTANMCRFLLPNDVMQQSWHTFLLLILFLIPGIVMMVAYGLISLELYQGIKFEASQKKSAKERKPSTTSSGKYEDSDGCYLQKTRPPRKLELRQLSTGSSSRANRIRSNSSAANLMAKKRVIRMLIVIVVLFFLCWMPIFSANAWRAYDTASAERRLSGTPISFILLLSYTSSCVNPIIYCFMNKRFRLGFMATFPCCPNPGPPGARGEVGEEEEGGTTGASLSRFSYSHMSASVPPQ
Description: Chem-1 cells expressing the CCK1 receptor (HTS184RTA, Merck) were cultured in Dulbecco's MEM/F12 (ECM0090L, EuroClone) with 10% fetal bovine serum, 2 mM L-glutamine, 100 U/ml penicillin and 100 μg/ml streptomycin.
In a further experimental setting, experiments were performed using as above the FLUOstar Omega (BMG Labtech, Offenburg, Germany) microplate reader equipped with syringe pumps and optical excitation/emission filters optimized for yellow fluorescent protein (YFP) fluorescence (ET500/20× and ET535/30m, respectively; Chroma Technology Corporation). FRT and Chem-1 cells were cultured until confluence in 96-well microplates (cc3603, Corning). Cells were washed 2 times with PBS (150 μl/wash) and then loaded for 1 h at 37° C. with 5 μM Fluo-4/AM (Thermo Fisher Scientific; catalog number: F23917) in PBS containing 10 mM glucose, 0.5 mM sulfinpyrazone, and 1% fetal bovine serum. […] Fluo-4 fluorescence (500 nm excitation, 535 nm emission) was detected every 200 ms for 16-40 s. Two seconds after the start of fluorescence recording, the reader automatically injected 165 μl of a modified PBS containing 136 mM KCl instead of NaCl. […] The Fluo-4 fluorescence increase was quantified using a procedure compiled in Microsoft Excel after background subtraction and normalization for the initial value measured before UTP or CCK8s addition.

[2] = test system: ENaC; assay: Short-circuit current recordings on human cultured bronchial epithelia, ENaC function; settings: apical addition; ARN7149 10 μM, ARN11391 20 μM, ARN4550 20 μM, UTP 10 nM; FIG. 9
Excerpt: In a further experimental setting, snapwell supports (cc3801, Corning) carrying differentiated bronchial epithelia generated in vitro were mounted in a vertical chamber resembling an Ussing system with internal fluid circulation (EM-CSYS-8, Physiologic Instruments, San Diego, CA, USA). The apical and basolateral hemichambers were filled with a solution containing (in mM): 126 NaCl, 0.38 KH2PO4, 2.13 K2HPO4, 1 MgSO4, 1 CaCl2), 24 NaHCO3, and 10 glucose. Both sides were continuously bubbled with a gas mixture containing 5% CO2 and 95% air. The temperature of the solution was kept at 37° C. throughout the experiment.
During recordings, the following molecules (in addition to ARN7149, ARN11391, and ARN4550) were added in the apical solution: elastase (SE2093002, Serva); UTP (U6625, Merck); amiloride (A7410, Merck). Transepithelial voltage was short-circuited with a voltage-clamp (VCC MC8, Physiologic Instruments, San Diego, CA, USA) connected to the apical and basolateral chambers via Ag—AgCl electrodes and agar bridges (2% agar in 1 M KCl). The offset between voltage electrodes and the fluid resistance were cancelled before experiments. The resulting short-circuited current from each channel was recorded on a personal computer with the Acquire & Analize 2.3 software (Physiologic Instruments, San Diego, CA, USA).

[3] = target: T2, T267M ITPR1 (Homo sapiens, UniProt Q14643, T267M); assay: IP3 uncaging assay, HEK293 cells expressing T267M-ITPR1; settings: compound 10 μM; tetracycline-treated; FIG. 6D
T2 construct: expressed in transfected cells
Description: (§1) HEK293 cells stably transfected with tetracycline-inducible expression of wild type or mutant (R269W or T267M) ITPR1, kindly provided by Prof. S. R. Wayne Chen (University of Calgary; ref. 14), were cultured in a mixture of Dulbecco's Modified Eagle Medium (DMEM, high glucose version) and Ham's F12 (1:1) and supplemented with 10% fetal bovine serum, 2 mM L-glutamine, 100 U/ml penicillin and 100 μg/ml streptomycin. Cells were selected with 0.5 mg/ml hygromycin B and induced with 1 μg/ml tetracycline.
(§2) FRT and HEK293 cells were cultured in μ-Plate96 microplates (Ibidi) at subconfluent condition. Cells were washed 2 times with PBS (150 μl/wash) and then loaded for 45 min at 37° C. with 1 μM ci-IP3/PM (Tocris; catalog number: 6210/10U) and 5 μM Fluo-4/AM (Thermo Fisher Scientific) in PBS containing 10 mM glucose, 0.5 mM sulfinpyrazone and 1% fetal bovine serum. After 45 min, cells were further incubated for 1 h at 37° C. with a fresh PBS solution containing Fluo-4/AM, glucose, sulfinpyrazone, serum, but no ci-IP3/PM. […] Analysis was performed with MetaFluor software, by quantifying Fluo-4 fluorescence in manually selected single cell region of interest (ROI). […] After background subtraction, fluorescence traces were normalized for the initial value.

[4] = target: T3, R269W ITPR1 (Homo sapiens, UniProt Q14643, R269W); assay: IP3 uncaging assay, HEK293 cells expressing R269W-ITPR1; settings: compound 10 μM; tetracycline-treated; FIG. 6D
T3 construct: expressed in transfected cells
T3 sequence (Q14643 whole entry R269W): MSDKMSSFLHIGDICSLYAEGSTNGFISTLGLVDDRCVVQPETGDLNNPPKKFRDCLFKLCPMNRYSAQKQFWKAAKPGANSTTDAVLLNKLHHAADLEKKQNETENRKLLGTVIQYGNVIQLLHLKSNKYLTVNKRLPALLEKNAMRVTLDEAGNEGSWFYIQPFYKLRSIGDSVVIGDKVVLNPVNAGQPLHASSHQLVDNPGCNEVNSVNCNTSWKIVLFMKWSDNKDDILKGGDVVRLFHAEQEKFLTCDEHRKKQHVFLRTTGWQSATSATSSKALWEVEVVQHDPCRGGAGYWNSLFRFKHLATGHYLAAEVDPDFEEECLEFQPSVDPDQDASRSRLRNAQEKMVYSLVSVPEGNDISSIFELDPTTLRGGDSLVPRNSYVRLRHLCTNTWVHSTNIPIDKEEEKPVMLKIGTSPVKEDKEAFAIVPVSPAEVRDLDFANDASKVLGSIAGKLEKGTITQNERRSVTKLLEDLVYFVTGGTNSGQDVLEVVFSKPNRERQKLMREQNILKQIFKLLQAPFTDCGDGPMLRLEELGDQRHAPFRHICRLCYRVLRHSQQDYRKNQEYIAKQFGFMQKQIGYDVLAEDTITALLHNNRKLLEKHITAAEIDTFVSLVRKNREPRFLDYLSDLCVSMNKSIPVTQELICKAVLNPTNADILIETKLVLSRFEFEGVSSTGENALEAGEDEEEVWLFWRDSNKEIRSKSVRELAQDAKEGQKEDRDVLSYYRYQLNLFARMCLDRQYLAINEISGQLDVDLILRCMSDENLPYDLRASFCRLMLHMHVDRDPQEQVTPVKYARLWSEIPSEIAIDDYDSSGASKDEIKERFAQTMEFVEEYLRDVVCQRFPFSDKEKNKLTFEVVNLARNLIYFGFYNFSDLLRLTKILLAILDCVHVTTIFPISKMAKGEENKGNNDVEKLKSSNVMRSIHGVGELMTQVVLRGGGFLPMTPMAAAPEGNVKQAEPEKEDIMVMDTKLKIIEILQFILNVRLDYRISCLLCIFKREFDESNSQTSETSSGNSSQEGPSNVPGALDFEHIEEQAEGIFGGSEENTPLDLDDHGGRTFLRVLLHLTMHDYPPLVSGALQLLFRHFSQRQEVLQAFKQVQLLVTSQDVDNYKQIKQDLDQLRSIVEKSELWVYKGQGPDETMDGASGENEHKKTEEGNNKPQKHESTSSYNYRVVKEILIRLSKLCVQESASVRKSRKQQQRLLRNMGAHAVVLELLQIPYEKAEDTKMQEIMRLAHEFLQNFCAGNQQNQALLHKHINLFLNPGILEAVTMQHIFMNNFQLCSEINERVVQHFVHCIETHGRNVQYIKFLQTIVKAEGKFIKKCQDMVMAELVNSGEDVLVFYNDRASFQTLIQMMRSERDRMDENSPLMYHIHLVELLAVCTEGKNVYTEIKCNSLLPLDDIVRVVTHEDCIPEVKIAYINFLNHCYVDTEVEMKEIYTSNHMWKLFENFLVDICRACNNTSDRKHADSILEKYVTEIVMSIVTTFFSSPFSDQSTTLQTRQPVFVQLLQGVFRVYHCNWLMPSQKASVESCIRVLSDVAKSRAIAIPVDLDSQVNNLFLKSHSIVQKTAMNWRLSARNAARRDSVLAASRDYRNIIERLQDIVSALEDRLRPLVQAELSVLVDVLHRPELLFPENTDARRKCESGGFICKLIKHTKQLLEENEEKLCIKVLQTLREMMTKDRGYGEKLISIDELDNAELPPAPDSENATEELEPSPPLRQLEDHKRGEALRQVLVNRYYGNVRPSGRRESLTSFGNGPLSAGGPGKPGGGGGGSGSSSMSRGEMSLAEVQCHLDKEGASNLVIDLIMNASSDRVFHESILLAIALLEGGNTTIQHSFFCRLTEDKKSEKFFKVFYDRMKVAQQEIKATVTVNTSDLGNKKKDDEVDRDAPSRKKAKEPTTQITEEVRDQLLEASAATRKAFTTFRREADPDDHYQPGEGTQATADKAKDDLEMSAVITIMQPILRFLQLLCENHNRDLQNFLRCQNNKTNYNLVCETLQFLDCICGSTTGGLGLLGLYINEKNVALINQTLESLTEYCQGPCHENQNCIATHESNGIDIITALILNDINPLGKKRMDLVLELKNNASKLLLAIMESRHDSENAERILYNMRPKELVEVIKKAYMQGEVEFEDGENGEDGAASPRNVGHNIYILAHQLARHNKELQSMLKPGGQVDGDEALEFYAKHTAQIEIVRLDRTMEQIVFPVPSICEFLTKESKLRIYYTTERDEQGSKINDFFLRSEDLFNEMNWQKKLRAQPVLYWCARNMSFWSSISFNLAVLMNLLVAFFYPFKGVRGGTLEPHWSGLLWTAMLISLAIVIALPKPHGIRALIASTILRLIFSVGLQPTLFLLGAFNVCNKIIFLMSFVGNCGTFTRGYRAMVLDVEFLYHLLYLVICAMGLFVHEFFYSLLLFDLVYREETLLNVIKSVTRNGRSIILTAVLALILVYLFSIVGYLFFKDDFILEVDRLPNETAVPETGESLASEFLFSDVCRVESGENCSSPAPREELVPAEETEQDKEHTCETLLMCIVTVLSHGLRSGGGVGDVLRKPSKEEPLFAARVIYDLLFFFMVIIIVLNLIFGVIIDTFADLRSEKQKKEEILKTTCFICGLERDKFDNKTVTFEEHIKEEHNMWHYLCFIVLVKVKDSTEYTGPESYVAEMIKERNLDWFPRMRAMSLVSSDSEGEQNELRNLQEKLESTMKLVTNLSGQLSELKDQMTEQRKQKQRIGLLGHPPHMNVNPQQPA
Description: as §1, §2

Row | SMILES | effect on CCK8s-induced Ca2+ mobilization [1] | ENaC current decay (ENaC inhibition), short-circuit current [2] | Ca2+ mobilization elicited by IP3 uncaging, T267M-ITPR1 [3] | Ca2+ mobilization elicited by IP3 uncaging, R269W-ITPR1 [4]
1 | OCc1ccccc1CN(Cc1ccnc(N2CCCC2)n1)c1ccc(F)cc1 [ARN4550, [2-[[4-Fluoro-N-[(2-pyrrolidin-1-ylpyrimidin-4-yl)methyl]anilino]methyl]phenyl]methanol] | significantly enhanced | caused ENaC current decay | – | –
2 | CCc1cc(-c2cc(NCCCOc3ccccc3C)nc(N)n2)n(C)n1 [ARN7149, 6-(3-Ethyl-1-methyl-1H-pyrazol-5-yl)-N^4-(3-(o-tolyloxy)propyl)pyrimidine-2,4-diamine] | lack of activity | caused ENaC current decay | – | –
3 | CCn1nc2c(c1C(=O)Nc1ccccc1OCC1CCCCO1)CCCC2 (stereo not drawn) [ARN11391, 2-Ethyl-N-[2-(tetrahydropyran-2-ylmethoxy)phenyl]-4,5,6,7-tetrahydroindazole-3-carboxamide] | – | – | significantly amplified | significantly amplified
